Patent publication US20050215555A1, “Inhibitors of 5-HT2A receptor” (priority 2003, published 2005)

Experiments:
5-HT2C [1] = molecular target: T1, 5-HT2C (Homo sapiens, UniProt P28335); test: FLIPR based assay, effect on 10 nM 5-HT induced Ca2+-currents; assay type: cell-based; details: functional FLIPR assays
T1 sequence (P28335 33-458): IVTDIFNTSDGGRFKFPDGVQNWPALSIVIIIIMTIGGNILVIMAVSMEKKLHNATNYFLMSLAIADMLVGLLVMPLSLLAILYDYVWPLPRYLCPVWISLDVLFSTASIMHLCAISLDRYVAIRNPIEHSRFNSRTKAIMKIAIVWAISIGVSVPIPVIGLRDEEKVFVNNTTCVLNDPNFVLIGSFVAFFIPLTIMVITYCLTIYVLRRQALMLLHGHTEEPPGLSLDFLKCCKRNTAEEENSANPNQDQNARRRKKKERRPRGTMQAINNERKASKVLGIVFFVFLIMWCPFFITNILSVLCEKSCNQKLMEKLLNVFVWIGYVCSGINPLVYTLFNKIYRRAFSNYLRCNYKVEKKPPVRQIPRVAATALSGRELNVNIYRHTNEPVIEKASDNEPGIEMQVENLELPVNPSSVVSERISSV
Description: The activity at 5-HT2C receptors was studied in a FLIPR based assay, measuring the effect of compounds on 10 nM 5-HT induced Ca^2+-currents.

5-HT2A [2] = molecular target: T2, 5-HT2A (Homo sapiens, UniProt P28223); test: Radioligand displacement binding (3H-5-HT), SPA or filter binding; set-up: expressed in transfected cells; host or cells: CHO or HEK293
T2 sequence (P28223 whole entry): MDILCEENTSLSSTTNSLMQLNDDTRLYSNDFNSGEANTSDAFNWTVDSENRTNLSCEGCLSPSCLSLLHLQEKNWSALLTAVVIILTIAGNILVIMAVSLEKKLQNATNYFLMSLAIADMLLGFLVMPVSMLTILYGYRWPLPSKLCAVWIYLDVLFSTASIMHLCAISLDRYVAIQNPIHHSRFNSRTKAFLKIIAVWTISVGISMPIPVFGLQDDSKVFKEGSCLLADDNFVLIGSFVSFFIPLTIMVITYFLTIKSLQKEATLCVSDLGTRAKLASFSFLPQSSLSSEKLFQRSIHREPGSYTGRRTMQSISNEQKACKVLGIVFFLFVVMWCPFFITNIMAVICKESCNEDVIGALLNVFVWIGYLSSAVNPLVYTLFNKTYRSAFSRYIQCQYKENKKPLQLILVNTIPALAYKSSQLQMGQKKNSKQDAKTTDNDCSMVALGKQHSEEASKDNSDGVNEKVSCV
Description: (§1) The affinity constants of compounds were determined using recombinant human serotonin receptors stably expressed in fibroblast cell lines (CHO or HEK293), measuring the ability of the compounds to displace radio-labelled tracers using scintillation proximity assays or filter binding assays. For 5-HT1B , 5-HT2B and 5-HT2C receptor binding studies ^3H-LSD was used as radio ligand, for 5-HT2 A and 5-HT6 ^3H-5-HT was used as tracer, while the binding constant to 5-HT1A was determined using ^3H-8-OH-DPAT. The non-selective serotonin receptor antagonist mianserine was used as reference substance.
(§2) The calculation of the Ki values for the inhibitors was performed by use of Activity Base. The Ki value is calculated from IC50 using the Cheng Prushoff equation (with reversible inhibition that follows the Michaelis-Menten equation): […] [Cheng, Y. C.; Prushoff, W. H. Biochem. Pharmacol. 1973, 22, 3099-3108].

5-HT6 = molecular target: T3, 5-HT6 (Homo sapiens, UniProt P50406); test: as above; details: recombinant human receptor
T3 construct: expressed in transfected cells; host or cells: CHO or HEK293
T3 sequence (P50406 whole entry): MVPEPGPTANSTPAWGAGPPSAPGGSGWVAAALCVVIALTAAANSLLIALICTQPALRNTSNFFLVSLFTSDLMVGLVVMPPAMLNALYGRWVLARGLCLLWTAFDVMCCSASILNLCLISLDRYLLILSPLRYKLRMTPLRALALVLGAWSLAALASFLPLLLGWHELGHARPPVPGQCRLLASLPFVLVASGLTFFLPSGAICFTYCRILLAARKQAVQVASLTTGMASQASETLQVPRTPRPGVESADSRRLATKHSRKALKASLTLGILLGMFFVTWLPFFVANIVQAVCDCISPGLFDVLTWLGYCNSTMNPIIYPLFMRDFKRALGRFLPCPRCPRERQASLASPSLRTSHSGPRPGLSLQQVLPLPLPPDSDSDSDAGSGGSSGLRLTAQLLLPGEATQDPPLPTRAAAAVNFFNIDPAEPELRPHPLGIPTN
Description: as §1, §2

5-HT1B = molecular target: T4, 5-HT1B (Homo sapiens, UniProt P28222); test: Radioligand displacement binding (3H-LSD), SPA or filter binding; details: recombinant human receptor
T4 construct: expressed in transfected cells; host or cells: CHO or HEK293
T4 sequence (P28222 whole entry): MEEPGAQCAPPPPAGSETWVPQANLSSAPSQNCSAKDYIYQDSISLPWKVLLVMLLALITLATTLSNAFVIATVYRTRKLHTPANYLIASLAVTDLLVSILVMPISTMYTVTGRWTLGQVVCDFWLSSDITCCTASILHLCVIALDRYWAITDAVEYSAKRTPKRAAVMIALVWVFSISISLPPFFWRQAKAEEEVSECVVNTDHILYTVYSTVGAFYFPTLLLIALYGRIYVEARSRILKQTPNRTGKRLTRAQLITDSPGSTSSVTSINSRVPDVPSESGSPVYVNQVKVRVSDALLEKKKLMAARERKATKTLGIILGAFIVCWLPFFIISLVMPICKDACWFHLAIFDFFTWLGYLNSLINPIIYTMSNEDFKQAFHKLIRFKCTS
Description: as §1, §2

5-HT2B = molecular target: T5, 5-HT2B (Homo sapiens, UniProt P41595); test: as above; details: recombinant human receptor
T5 construct: expressed in transfected cells; host or cells: CHO or HEK293
T5 sequence (P41595 whole entry): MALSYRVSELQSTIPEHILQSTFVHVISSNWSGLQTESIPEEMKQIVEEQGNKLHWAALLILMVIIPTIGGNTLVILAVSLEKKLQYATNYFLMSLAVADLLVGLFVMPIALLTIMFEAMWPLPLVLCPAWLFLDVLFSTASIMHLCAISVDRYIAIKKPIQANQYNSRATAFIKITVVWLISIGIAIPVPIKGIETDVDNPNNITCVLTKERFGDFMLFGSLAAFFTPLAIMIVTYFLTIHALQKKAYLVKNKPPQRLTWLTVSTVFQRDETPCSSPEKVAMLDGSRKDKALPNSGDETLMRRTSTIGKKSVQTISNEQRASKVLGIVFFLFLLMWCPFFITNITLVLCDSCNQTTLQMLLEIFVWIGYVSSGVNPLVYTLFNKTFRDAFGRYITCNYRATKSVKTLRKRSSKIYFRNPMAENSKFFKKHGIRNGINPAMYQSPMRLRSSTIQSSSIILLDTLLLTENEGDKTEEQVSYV
Description: as §1, §2

5-HT2C [3] = molecular target: T1, 5-HT2C; test: as above; set-up: expressed in transfected cells; host or cells: CHO or HEK293; details: recombinant human receptor
Description: as §1, §2

5-HT2A [4] = molecular target: T2, 5-HT2A; test: FLIPR functional assay (primary screening and IC50 determination), inhibition of 5-HT evoked peak response; assay type: cell-based; set-up: expressed in transfected cells; host or cells: CHO; details: CHO cells expressing 5-HT2A, 15 min pre-incubation, Ki calculated from IC50 (Cheng Prushoff)
Description: Primary screening and IC50 determination
CHO cells expressing 5-HT2A receptors seeded in 384 well plates are pre-loaded with Fluo-4AM fluorescent dye and then incubated with compound (10 μM for primary screen) for 15 min. Fluorescent intensity is recorded using a Fluorometric imaging plate reader (FLIPR384, Molecular Devices) and inhibition of the peak response evoked by 5-HT (EC70 concentration) is calculated.
IC50 determinations are performed utilizing the same finctional assay as described for primary screening (15 min antagonist compound pre-incubation), applying the compounds in the dose range of 3 nM to 10 μM.
as §2

5-HT1A = molecular target: T6, 5-HT1A (Homo sapiens, UniProt P08908); test: Radioligand displacement binding (3H-8-OH-DPAT), SPA or filter binding; details: recombinant human receptor
T6 construct: expressed in transfected cells; host or cells: CHO or HEK293
T6 sequence (P08908 1-422): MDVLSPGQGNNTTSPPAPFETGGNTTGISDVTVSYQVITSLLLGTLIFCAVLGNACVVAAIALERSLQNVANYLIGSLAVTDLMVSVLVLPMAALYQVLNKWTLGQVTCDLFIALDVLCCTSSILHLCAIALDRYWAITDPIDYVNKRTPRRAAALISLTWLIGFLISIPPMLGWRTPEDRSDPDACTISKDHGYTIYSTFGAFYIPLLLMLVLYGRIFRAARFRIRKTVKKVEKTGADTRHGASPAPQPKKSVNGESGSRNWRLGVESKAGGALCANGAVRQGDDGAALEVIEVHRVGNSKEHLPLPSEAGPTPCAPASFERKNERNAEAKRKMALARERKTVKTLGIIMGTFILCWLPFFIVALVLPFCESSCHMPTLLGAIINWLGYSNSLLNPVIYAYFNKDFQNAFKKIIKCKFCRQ
Description: as §1, §2

[5] = equilibrium displacement binding, n=3, unit inferred, read-out: Ki values for the 5-HT2A receptor subtype
[6] = recombinant human receptor, 3H-5-HT, read-out: Binding Ki (nM) 5-HT2A

## c1ccc(CCN2CCC(c3nc(-c4ccccc4)c4ccccn34)CC2)cc1 [Example 2]
5-HT2C [1]
  selectivity at 5-HT2A versus the 5-HT2C receptor in terms of efficacy: highly selective
5-HT2A [2]; [5]
  Ki: 6 nM
5-HT2A [2]; [6]
  Ki: 5.9 nM
5-HT6
  Ki: > 1000 nM
5-HT1B
  Ki: > 1000 nM
5-HT2B
  Ki: 444 nM
5-HT2C [3]
  Ki: > 1000 nM
5-HT2A [4]
  Ki: 20.6 nM
5-HT1A
  Ki: > 1000 nM

## Cc1ccn2c(C3CCN(CCc4ccccc4)CC3)nc(-c3ccccc3)c2c1 [Example 4, 7-methyl-1-phenyl-3-[1-(2-phenylethyl)piperidin-4-yl]imidazo[1,5-a]pyridine]
5-HT2C [1]
  selectivity at 5-HT2A versus the 5-HT2C receptor in terms of efficacy: highly selective
5-HT2A [2]; [5]
  Ki: 14 nM
5-HT2A [2]; [6]
  Ki: 13.6 nM
5-HT6
  Ki: > 1000 nM
5-HT1B
  Ki: > 1000 nM
5-HT2B
  Ki: 267 nM
5-HT2C [3]
  Ki: > 1000 nM
5-HT2A [4]
  Ki: 8.2 nM
5-HT1A
  Ki: > 1000 nM
